According to publication PMC6272715, “Discovery of Novel Small Molecule Anti-HCV Agents via the CypA Inhibitory Mechanism Using O-Acylation-Directed Lead Optimization” (Molecules, 2015):
Where “and” joins values, the source holds several entries; their conditions need not be identical. Equal entries are not always repeated. Where two headings read alike, the source gives them in different places.

Experiments:
HCV JFH1-2a replicon = assay: HCV JFH1-2a subgenomic replicon assay (Renilla luciferase, Huh 7.5.1 replicon cells); format: cell-based; details: Hepatitis C virus, Table 4, read-out: Anti-HCV Activity EC50 ± SD Replicon Assay JFH1-2a
HCV H77-1a replicon = assay: HCV H77-1a subgenomic replicon assay; format: cell-based; details: Hepatitis C virus; Table 4; read-out: Anti-HCV Activity EC50 ± SD Replicon Assay H77-1a
HCV Con1-1b replicon = assay: HCV Con1-1b subgenomic replicon assay; format: cell-based; details: Hepatitis C virus; Table 4; read-out: Anti-HCV Activity EC50 ± SD Replicon Assay Con1-1b
[1] = Cell proliferation (cytotoxicity) assay, WST-1; format: cell-based; details: human, Huh 7.5.1 cells
Experimental: Cell Proliferation Assay: Huh 7.5.1 cells were seeded at a density of 2 × 10^4 cells per well in 96-well plates overnight. The cells were respectively incubated with serial diluted compounds for 48 h, and the viability of Huh7.5.1 cells was determined in 96-well tissue culture plates using cell proliferation reagent WST-1 (Roche, Basel, Switzerland). The absorbance (OD450 /reference OD630) was measured to detect the cytotoxicity of compounds, according to the manufacturer’s protocol of Cell Proliferation Reagent WST-1.

hERG channels = biological target: T1, hERG channels (Homo sapiens, UniProt Q12809); assay: hERG cardiac toxicity assay (automated QPatch, CHO cells expressing hERG); format: cell-based; details: QPatch whole-cell recording
T1 construct: expressed in transfected cells; host or cells: CHO cells, stably transfected
T1 sequence (Q12809 whole entry): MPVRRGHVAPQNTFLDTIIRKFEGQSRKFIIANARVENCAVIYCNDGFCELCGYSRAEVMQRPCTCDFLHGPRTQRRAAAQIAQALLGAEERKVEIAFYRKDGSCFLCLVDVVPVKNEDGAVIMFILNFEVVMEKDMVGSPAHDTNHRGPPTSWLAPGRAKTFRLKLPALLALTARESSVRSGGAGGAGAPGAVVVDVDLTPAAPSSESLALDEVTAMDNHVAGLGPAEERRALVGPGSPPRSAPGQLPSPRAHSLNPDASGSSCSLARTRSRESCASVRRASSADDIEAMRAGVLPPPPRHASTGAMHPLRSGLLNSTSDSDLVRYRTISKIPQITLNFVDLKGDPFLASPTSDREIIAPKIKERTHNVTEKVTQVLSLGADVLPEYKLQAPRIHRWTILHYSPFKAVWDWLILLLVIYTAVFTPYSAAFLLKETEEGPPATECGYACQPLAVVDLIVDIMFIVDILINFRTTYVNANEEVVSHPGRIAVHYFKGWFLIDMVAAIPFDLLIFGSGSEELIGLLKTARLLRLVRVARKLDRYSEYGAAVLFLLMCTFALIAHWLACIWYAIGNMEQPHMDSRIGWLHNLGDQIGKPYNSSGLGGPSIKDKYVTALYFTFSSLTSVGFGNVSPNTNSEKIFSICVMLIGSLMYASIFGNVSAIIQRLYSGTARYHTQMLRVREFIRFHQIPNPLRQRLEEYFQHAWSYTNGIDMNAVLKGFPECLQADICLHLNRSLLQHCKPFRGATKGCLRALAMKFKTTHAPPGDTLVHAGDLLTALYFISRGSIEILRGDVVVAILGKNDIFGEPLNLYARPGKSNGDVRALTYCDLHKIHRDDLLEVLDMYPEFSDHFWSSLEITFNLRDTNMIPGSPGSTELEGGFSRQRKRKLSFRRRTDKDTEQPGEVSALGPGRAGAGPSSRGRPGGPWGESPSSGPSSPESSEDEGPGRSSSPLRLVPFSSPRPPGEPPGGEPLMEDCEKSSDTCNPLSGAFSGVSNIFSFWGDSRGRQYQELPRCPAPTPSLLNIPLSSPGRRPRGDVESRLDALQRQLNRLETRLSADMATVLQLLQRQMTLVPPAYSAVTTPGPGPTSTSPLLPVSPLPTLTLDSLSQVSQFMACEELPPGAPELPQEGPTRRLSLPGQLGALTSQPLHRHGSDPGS
Experimental: After intravenous administration, blood samples (0.2 mL) were collected at designated time points (0, 5, 15, 30, 45 min, 1, 2, 3, 5, 8, 12 and 24 h) from the eye venous sinus of the rats. The blood samples were centrifuged at 14800 rpm for 10 min to obtain the plasma fraction. The plasma samples were kept frozen (−20 °C) until analysis by a liquid chromatography-tandem mass spectrometry (LC-MS/MS).
Table S3. Pharmacokinetic parameters after intravenous administration of 25 to SD rats at […]
Pharmacokinetic Parameters 25 (Intravenous Injection of 2 mg 25/kg) Rat 1 Rat 2 a Rat 3 Mean ± SD […]
1 (intravenous injection of 2mg 25/kg) Rat 1 Rat 2 a Rat 3 Mean ± SD […]
a Rat 2: parts of the sample of 25 was injected into the subcutaneous tissues which lead to the uncertainty of the plasma concentration, so this rat was not incorporated into the calculation of pharmacokinetic parameters; b Cmax: maximum plasma concentration taken directly from measured values; c Tmax: time to reach Cmax; d AUC0-∞: integrated area under plasma concentration vs. time curve from time 0 to time infinity; e MRT: mean residence time; f t1/2: half-life. g N: parts of the data below the LLOQ, that result in the uncertainty of the pharmacokinetic parameters. hERG Cardiac Toxicity Assay of Compound 25 […]
After achieving break-in (whole-cell) configuration, the cells were recorded for 120 s to assess current stability. […]

[2] = PBS pH 7.4, 37 °C
in vivo = details: male, SD, rat, iv, i.v. 2 mg 25/kg; for AUC(0-inf): AUC0-∞
[3] = test system: JFH1-2a virus (wild type); assay: HCV virus assay, JFH1-2a wild type, Huh 7.5.1 cells; details: Hepatitis C virus
[4] = SD rats, Mean ± SD (Rat 1 and 3)

CCCCCCCC(=O)Oc1cccc(O)c1C(=O)NC(=O)NC1c2ccccc2-c2ccccc21 [Compound 25, 1-(2-Hydroxy-6-n-Octanoyloxybenzoyl)-3-(9H-fluoren-9-yl)-urea]
EC50 (HCV JFH1-2a replicon): 0.45 ± 0.08 µM | EC50 (HCV H77-1a replicon): 0.85 ± 0.21 µM | EC50 (HCV Con1-1b replicon): 0.81 ± 0.24 µM | CC50 at 48 h ([1]; Table 4, 48 h): > 16 µM | CC50 at 48 h ([1]; Table 5): > 20 µM | IC50 (hERG channels): > 15 µM | melting point: 184 to 189 °C | 25 Content ([2]; 0 h): 100% | 25 Content ([2]; 0.5 h): 99.79% | 25 Content ([2]; 1.0 h): 100.13% | 25 Content ([2]; 1.5 h): 99.76% | 25 Content ([2]; 2.0 h): 100.72% | 25 Content ([2]; 3.0 h): 100.67% | 25 Content ([2]; 3.5 h): 100.93% | 25 Content ([2]; 4.0 h): 100.74% | 25 Content ([2]; 5.0 h): 100.21% | 25 Content ([2]; 6.0 h): 100.24% | 25 Content ([2]; 7.0 h): 100.34% | 25 Content ([2]; 8.0 h): 100.30% | 25 Content ([2]; 9.0 h): 99.29% | 25 Content ([2]; 10.0 h): 98.88% | 25 Content ([2]; 11.0 h): 98.43% | 25 Content ([2]; 12.0 h): 98.65% and 98.6% | AUC(0-inf) (in vivo; SD rat, Rat 1): 5.66 ng·h/mL | AUC(0-inf) (in vivo; SD rat, Rat 3): 5.3 ng·h/mL | AUC(0-inf) (in vivo; [4]): 5.48 ± 0.25 ng·h/mL | Cmax (in vivo; SD rat, Rat 1): 0.0134 µg/mL | Cmax (in vivo; SD rat, Rat 3): 0.0275 µg/mL | Cmax (in vivo; [4]): 0.0205 ± 0.00999 µg/mL | MRT (in vivo; SD rat, Rat 1): 2.42 h | MRT (in vivo; SD rat, Rat 3): 0.21 h | MRT (in vivo; [4]): 1.3 ± 1.6 h | half-life (in vivo; t1/2, SD rat, Rat 1): 5.4 h | half-life (in vivo; t1/2, SD rat, Rat 3): 0.12 h | half-life (in vivo; t1/2, SD rats, Mean ± SD (Rat 1 and 3)): 2.76 ± 3.73 h | EC50 ([3]; Huh-7.5.1, read-out: Anti-HCV Activity (Virus Assay) EC50 ± SD JFH1-2a (Wild Type)): 0.27 ± 0.09 µM | EC50 ([3]; Huh-7.5.1, read-out: Anti-HCV Activity EC50 ± SD Virus Assay JFH1-2a): 0.19 ± 0.08 µM
